From US20240409585A1, “MACROCYCLIC IMMUNOMODULATORS” (priority 2021, published 2024)
Numbered stars: 1 amine (or outer) side, 2 acyl side, 3 side chain; on linkers, the order of the positions; unused ones are H or OH. Bridge positions count the residues as written; N and C are the ends. Square brackets hold non-standard residues; d marks the D form. Peptide text beside a SMILES is read from it. * marks the point of attachment. ξ: configuration not given here. Tyr(3-NO2) = N[C@@H](Cc1ccc(O)c([N+](=O)[O-])c1)C(=O)O; X46 = COCc1ccc(-c2ccc(C[C@H](N[*:1])C(=O)[*:2])cc2)cc1; Phe(4-CONH2) = NC(=O)c1ccc(C[C@H](N)C(=O)O)cc1; Phe(4-COOH) = N[C@@H](Cc1ccc(C(=O)O)cc1)C(=O)O; Bip = N[C@@H](Cc1ccc(-c2ccccc2)cc1)C(=O)O; Phe(3-Me) = Cc1cccc(C[C@H](N)C(=O)O)c1; βAsp = O=C(O)[C@H](CC(=O)[*:2])N[*:1]; Val(3-OH) = CC(C)(O)[C@H](N)C(=O)O; 2Pal = N[C@@H](Cc1ccccn1)C(=O)O; 4Pal = N[C@@H](Cc1ccncc1)C(=O)O; Cha = N[C@@H](CC1CCCCC1)C(=O)O; Cit = NC(=O)NCCC[C@H](N)C(=O)O; Thr(3ξ) = CC(O)[C@H](N)C(=O)O; ξIle = CC[C@H](C)C(N)C(=O)O; Carboxymethyl = O=C(O)C*; NMeA = CN[C@@H](C)C(=O)O; Nle = CCCC[C@H](N)C(=O)O; Orn = NCCC[C@H](N)C(=O)O; Pra = C#CC[C@H](N)C(=O)O; Dab = NCC[C@H](N)C(=O)O

target: T1, PE-labeled human PD-L1-Ig binding to Jurkat cell line over-expressing human PD-1 (Jurkat-PD-1) (Homo sapiens, UniProt Q15116); test: Jurkat-PD-1 Cell Binding High-Content Screening Assay (CBA): Method 1; conditions: Jurkat-hPD-1 cells, PE-labeled PD-L1-Ig 20 nM final; read-out: Jurkat HPDL1 PD1 IC50 (uM) (Method 1)
T1 construct: expressed in transfected cells; host or cells: Jurkat
T1 sequence (Q15116 25-288): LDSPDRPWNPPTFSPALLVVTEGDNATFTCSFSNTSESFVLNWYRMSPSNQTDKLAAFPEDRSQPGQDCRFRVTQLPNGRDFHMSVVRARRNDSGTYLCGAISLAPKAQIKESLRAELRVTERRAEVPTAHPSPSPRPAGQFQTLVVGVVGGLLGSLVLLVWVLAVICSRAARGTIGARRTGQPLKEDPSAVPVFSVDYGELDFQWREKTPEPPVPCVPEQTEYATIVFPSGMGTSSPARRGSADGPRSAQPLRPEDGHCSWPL

| IC50 [µM] | SMILES |
| --- | --- |
| 0.02 | CC[C@H](C)C1NC(=O)[C@H](Cc2ccc(-c3ccccc3)cc2)NC(=O)[C@H](C(C)C)NC(=O)[C@H](Cc2c[nH]c3ccccc23)NC(=O)[C@H](CC(=O)O)NC(=O)[C@H](Cc2ccc(C(=O)O)cc2)NC(=O)[C@H](CC(N)=O)NC(=O)CSC[C@@H](C(=O)N[C@@H](C)C(N)=O)NC(=O)[C@H]([C@@H](C)O)NC(=O)[C@H](C(C)C)NC(=O)[C@H](CC(C)C)NC(=O)[C@H](CCN)NC(=O)[C@@H](CC(C)C)NC(=O)[C@H](C)N(C)C1=O (stereo partly drawn) [Compound 1395] ({CH2CO}-N[Phe(4-COOH)]DWV[Bip][ξIle][NMeA][dL][Dab]LVTCA-NH2; thioether N-14) |
| 0.02 | Cc1cccc(C[C@@H]2NC(=O)[C@H](CC(=O)O)NC(=O)[C@H](Cc3ccc(C(=O)O)cc3)NC(=O)[C@H](C(C)O)NC(=O)CSC[C@@H](C(=O)N[C@@H](CCN)C(N)=O)NC(=O)[C@H](CO)NC(=O)[C@H](C(C)(C)O)NC(=O)[C@H](CC3CCCCC3)NC(=O)[C@H](CCN)NC(=O)[C@@H](CC(C)C)NC(=O)[C@H](C)N(C)C(=O)[C@H](Cc3ccc(OCC(=O)O)cc3)NC(=O)[C@H](Cc3ccc(-c4ccccc4)cc3)NC(=O)[C@H](Cc3ccc(OCC(=O)O)cc3)NC2=O)c1 (stereo partly drawn) [Compound 2151] ({CH2CO}-[Thr(3ξ)][Phe(4-COOH)]D[Phe(3-Me)]Y(Carboxymethyl)[Bip]Y(Carboxymethyl)[NMeA][dL][Dab][Cha][Val(3-OH)]SC[Dab]-NH2; thioether N-14) |
| 0.2 | CC(C)C[C@@H]1NC(=O)[C@H](CCN)NC(=O)[C@@H](CC(C)C)NC(=O)[C@H](C)N(C)C(=O)[C@H](CCC(=O)O)NC(=O)[C@H](Cc2ccc(-c3ccccc3)cc2)NC(=O)[C@H](C(C)C)NC(=O)[C@H](Cc2c[nH]c3ccccc23)NC(=O)[C@H](CC(=O)O)NC(=O)[C@H](Cc2ccc(OCC(=O)O)cc2)NC(=O)[C@H](CC(N)=O)NC(=O)CSC[C@@H](C(=O)NCC(N)=O)NC(=O)[C@H](C(C)O)NC(=O)[C@H](C(C)C)NC1=O (stereo partly drawn) [Compound 2086] ({CH2CO}-NY(Carboxymethyl)DWV[Bip]E[NMeA][dL][Dab]LV[Thr(3ξ)]CG-NH2; thioether N-14) |
| 0.03 | CC(C)C[C@@H]1NC(=O)[C@H](CCCNC(=N)N)NC(=O)[C@@H](CC(C)C)NC(=O)[C@H](C)N(C)C(=O)[C@H](CCCNC(=N)N)NC(=O)[C@H](Cc2ccc(-c3ccccc3)cc2)NC(=O)[C@H](C(C)C)NC(=O)[C@H](Cc2c[nH]c3ccccc23)NC(=O)[C@H](CC(=O)O)NC(=O)[C@H](Cc2ccc(C(N)=O)cc2)NC(=O)[C@H](Cc2ccccc2)NC(=O)CSC[C@@H](C(=O)N[C@@H](C)C(N)=O)NC(=O)[C@H]([C@@H](C)O)NC(=O)[C@H](C(C)C)NC1=O [Compound 1099] ({CH2CO}-F[Phe(4-CONH2)]DWV[Bip]R[NMeA][dL]RLVTCA-NH2; thioether N-14) |
| 0.12 | CCCC[C@@H]1NC(=O)[C@H](CCCNC(=N)N)NC(=O)[C@@H](CC(C)C)NC(=O)[C@H](C)N(C)C(=O)[C@H]([C@@H](C)CC)NC(=O)[C@H](Cc2ccc(-c3ccccc3)cc2)NC(=O)[C@H](C(C)C)NC(=O)[C@H](Cc2c[nH]c3ccccc23)NC(=O)[C@H](CC(=O)O)NC(=O)[C@H](Cc2ccc(O)cc2)NC(=O)[C@H](CC(N)=O)NC(=O)CSC[C@@H](C(=O)N[C@@H](C)C(N)=O)NC(=O)[C@H]([C@@H](C)O)NC(=O)[C@H](C(C)C)NC1=O [Compound 1498] ({CH2CO}-NYDWV[Bip]I[NMeA][dL]R[Nle]VTCA-NH2; thioether N-14) |
| 0.13 | CC(C)C[C@@H]1NC(=O)[C@H](CCCCN)NC(=O)[C@@H](CC(C)C)NC(=O)[C@H](C)N(C)C(=O)[C@H](CCCNC(=N)N)NC(=O)[C@H](Cc2ccc(-c3ccccc3)cc2)NC(=O)[C@H](C(C)C)NC(=O)[C@H](Cc2c[nH]c3ccccc23)NC(=O)[C@H](CC(=O)O)NC(=O)[C@H](Cc2ccc(O)cc2)NC(=O)[C@H](Cc2ccccc2)NC(=O)CSC[C@@H](C(=O)N[C@@H](CO)C(N)=O)NC(=O)[C@H]([C@@H](C)O)NC(=O)[C@H](C(C)C)NC1=O [Compound 1184] ({CH2CO}-FYDWV[Bip]R[NMeA][dL]KLVTCS-NH2; thioether N-14) |
| 0.01 | C#CC[C@H](NC(=O)C[C@H](NC(=O)[C@@H]1CSCC(=O)N[C@@H](Cc2ccc(OCC(=O)O)cc2)C(=O)N[C@@H](Cc2ccncc2)C(=O)N[C@@H](CC(=O)O)C(=O)N[C@@H](Cc2c[nH]c3ccccc23)C(=O)N[C@@H](CC(C)C)C(=O)N[C@@H](Cc2ccc(-c3ccccc3)cc2)C(=O)N[C@@H](C(C)C)C(=O)N(C)[C@@H](C)C(=O)N[C@H](CC(C)C)C(=O)N[C@@H](CCN)C(=O)N[C@@H](CC2CCCCC2)C(=O)N[C@@H](C(C)C)C(=O)N[C@@H](CO)C(=O)N1)C(=O)O)C(N)=O [Compound 1645] ({CH2CO}-Y(Carboxymethyl)[4Pal]DWL[Bip]V[NMeA][dL][Dab][Cha]VSC[βAsp][Pra]-NH2; thioether N-14) |
| 0.03 | CC(C)C[C@@H]1NC(=O)[C@H](CCCN)NC(=O)[C@@H](CC(C)C)NC(=O)[C@H](C)N(C)C(=O)[C@H](CCCNC(=N)N)NC(=O)[C@H](Cc2ccc(-c3ccccc3)cc2)NC(=O)[C@H](C(C)C)NC(=O)[C@H](Cc2c[nH]c3ccccc23)NC(=O)[C@H](CC(=O)O)NC(=O)[C@H](Cc2ccc(C(=O)O)cc2)NC(=O)[C@H](Cc2ccccc2)NC(=O)CSC[C@@H](C(=O)N[C@@H](C)C(N)=O)NC(=O)[C@H]([C@@H](C)O)NC(=O)[C@H](C(C)C)NC1=O [Compound 1156] ({CH2CO}-F[Phe(4-COOH)]DWV[Bip]R[NMeA][dL][Orn]LVTCA-NH2; thioether N-14) |
| 0.28 | CC(C)C[C@@H]1NC(=O)[C@H](CCN)NC(=O)[C@@H](CC(C)C)NC(=O)[C@H](C)N(C)C(=O)[C@H](CCCNC(N)=O)NC(=O)[C@H](Cc2ccc(-c3ccccc3)cc2)NC(=O)[C@H](C(C)C)NC(=O)[C@H](Cc2c[nH]c3ccccc23)NC(=O)[C@H](CC(=O)O)NC(=O)[C@H](Cc2ccc(O)c([N+](=O)[O-])c2)NC(=O)[C@H](Cc2ccccn2)NC(=O)CSC[C@@H](C(=O)N[C@@H](C)C(N)=O)NC(=O)[C@H]([C@@H](C)O)NC(=O)[C@H](C(C)C)NC1=O [Compound 1337] ({CH2CO}-[2Pal][Tyr(3-NO2)]DWV[Bip][Cit][NMeA][dL][Dab]LVTCA-NH2; thioether N-14) |
| 0.81 | COCc1ccc(-c2ccc(C[C@@H]3NC(=O)[C@H](C(C)C)NC(=O)[C@H](Cc4c[nH]c5ccccc45)NC(=O)[C@H](CC(=O)O)NC(=O)[C@H](Cc4ccc(O)cc4)NC(=O)[C@H](CC(N)=O)NC(=O)CSC[C@@H](C(=O)N[C@@H](C)C(N)=O)NC(=O)[C@H]([C@@H](C)O)NC(=O)[C@H](C(C)C)NC(=O)[C@H](CC(C)C)NC(=O)[C@H](CCN)NC(=O)[C@@H](CC(C)C)NC(=O)[C@H](C)N(C)C(=O)[C@H](CCCNC(=N)N)NC3=O)cc2)cc1 [Compound 1205] ({CH2CO}-NYDWV[X46]R[NMeA][dL][Dab]LVTCA-NH2; thioether N-14) |
| 0.02 | CC[C@H](C)[C@@H]1NC(=O)[C@H](Cc2ccc(-c3ccccc3)cc2)NC(=O)[C@H](C(C)C)NC(=O)[C@H](Cc2cccc(C)c2)NC(=O)[C@H](CC(=O)O)NC(=O)[C@H](Cc2ccc(O)cc2)NC(=O)[C@H](CC(N)=O)NC(=O)CSC[C@@H](C(=O)N[C@@H](CCN)C(N)=O)NC(=O)[C@H]([C@@H](C)O)NC(=O)[C@H](C(C)(C)O)NC(=O)[C@H](CC2CCCCC2)NC(=O)[C@H](CCN)NC(=O)[C@@H](CC(C)C)NC(=O)[C@H](C)N(C)C1=O [Compound 1689] ({CH2CO}-NYD[Phe(3-Me)]V[Bip]I[NMeA][dL][Dab][Cha][Val(3-OH)]TC[Dab]-NH2; thioether N-14) |
